US10294202B2, “Pyrrolidinones as herbicides” (FMC Corporation, priority 2013, dated 2019)
Like-named read-outs stand apart in the source and are kept apart here.

How the values were obtained:
Experiment in all cases: Test A pre-/postemergence herbicide test
[1] = system: barnyardgrass; assay type: in vivo, Echinochloa crus-galli; settings: for pest or weed control at 1000 g/ha: Echinochloa crus-galli, 240 h, read-out: Plant response rating, Barnyardgrass
From the text: (§1) Seeds of plant species selected from bamyardgrass (Echinochloa crus-galli), kochia (Kochia scoparia), ragweed (common ragweed, Ambrosia elatior), ryegrass, Italian (Italian ryegrass, Lolium multiflorum), crabgrass, large (large crabgrass Digitaria sanguinalis), giant foxtail (Setaria faberii), morningglory (Ipomoea spp.), pigweed (Amaranthus retroflexus), velvetleaf (Abutilon theophrasti), wheat (Triticum aestivum), and corn (Zea mays) were planted into a blend of loam soil and sand and treated preemergence with a directed soil spray using test chemicals formulated in a non-phytotoxic solvent mixture which included a surfactant. At the same time, plants selected from these crop and weed species and also blackgrass (Alopecurus myosuroides), and galium (catchweed bedstraw, Galium aparine) were planted in pots containing the same blend of loam soil and sand and treated with postemergence applications of test chemicals formulated in the same manner. Plants ranged in height from 2 to 10 cm and were in the one- to two-leaf stage for the postemergence treatment. Treated plants and untreated controls were maintained in a greenhouse for approximately 10 days, after which time all treated plants were compared to untreated controls and visually evaluated for injury. Plant response ratings, summarized in Table A, are based on a 0 to 100 scale where 0 is no effect and 100 is complete control. A dash (-) response means no test result.

[2] = system: crabgrass, large; assay type: in vivo, Digitaria sanguinalis; settings: for pest or weed control at 1000 g/ha: Digitaria sanguinalis, 240 h, read-out: Plant response rating, Crabgrass, Large
From the text: as §1

[3] = system: giant foxtail; assay type: in vivo, Setaria faberii; settings: for pest or weed control at 1000 g/ha: Setaria faberi, 240 h, read-out: Plant response rating, Foxtail, Giant
From the text: as §1

[4] = system: morningglory; assay type: in vivo, Ipomoea spp.; settings: for pest or weed control at 1000 g/ha: Ipomoea, 240 h, read-out: Plant response rating, Morningglory
From the text: as §1

[5] = system: pigweed; assay type: in vivo, Amaranthus retroflexus; settings: for pest or weed control at 1000 g/ha: Amaranthus retroflexus, 240 h, read-out: Plant response rating, Pigweed
From the text: as §1

[6] = system: velvetleaf; assay type: in vivo, Abutilon theophrasti; settings: for pest or weed control at 1000 g/ha: Abutilon theophrasti, 240 h, read-out: Plant response rating, Velvetleaf
From the text: as §1

[7] = system: wheat; assay type: in vivo, Triticum aestivum; settings: for plant injury at 1000 g/ha: Triticum aestivum, 240 h, read-out: Plant response rating, Wheat
From the text: as §1

[8] = system: corn; assay type: in vivo, Zea mays; settings: for Corn plant response rating (crop injury, 0 = no effect, 100 = complete kill) at 1000 g/ha: Zea mays, 240 h
From the text: as §1

[9] = Postemergence, 1000 g ai/ha, 0 to 100 scale (0 no effect, 100 complete control)
[10] = preemergence, 1000 g ai/ha, 0 to 100 scale (0 no effect, 100 complete control)
[11] = preemergence, 1000 g ai/ha, 0 to 100 scale
[12] = post-emergence, Postemergence, 1000 g ai/ha, 0 to 100 scale (0 no effect, 100 complete control)
[13] = pre-emergence, Preemergence, 1000 g ai/ha, visual rating on 0 to 100 scale (0 no effect, 100 complete control), approx. 10 days
[14] = Postemergence, 125 g ai/ha, 0 to 100 scale, 0 no effect, 100 complete control
[15] = Postemergence, 500 g ai/ha, 0 to 100 scale (0 no effect, 100 complete control)
[16] = Preemergence, 125 g ai/ha, visual rating on 0 to 100 scale (0 no effect, 100 complete control)
[17] = preemergence, 500 g ai/ha, 0 to 100 scale (0 no effect, 100 complete control)
[18] = preemergence, 500 g ai/ha, 0 to 100 scale
[19] = Preemergence, 1000 g ai/ha, visual rating on 0 to 100 scale (0 no effect, 100 complete control), approx. 10 days

With `Cn1cc(C2CNC(=O)C2C(=O)Nc2cccc(F)c2F)cn1` (racemic) [Compound 253] the “Plant response rating, Barnyardgrass” value [1, 9] was 0, the “Plant response rating, Barnyardgrass” value [1, 10] was 0 and the “Plant response rating, Crabgrass, Large” value [2, 9] was 20. For the same compound, the “Plant response rating, Crabgrass, Large” value [2, 11] was 0, the “Plant response rating, Foxtail, Giant” value [3, 9] was 20 and the “Plant response rating, Foxtail, Giant” value [3, 11] was 0. For the same compound, the “Plant response rating, Morningglory” value [4, 9] was 10, the “Plant response rating, Morningglory” value [4, 11] was 0 and the “Plant response rating, Pigweed” value [5, 9] was 0. The “Plant response rating, Pigweed” value [5, 11] was 0, the “Plant response rating, Velvetleaf” value [6, 9] was 0 and the “Plant response rating, Velvetleaf” value [6, 11] was 0. For the same compound, the “Plant response rating, Wheat” value [7, 9] was 0, the “Plant response rating, Wheat” value [7, 11] was 0 and the “Plant response rating, Corn” value [8, 9] was 0. The “Plant response rating, Corn” value [8, 11] was 0.
With `O=C(Nc1ccccc1F)C1C(=O)N(O)CC1c1ccc(F)c(F)c1` (centres unmarked) [Compound 44, 4-(3,4-difluorophenyl)-N-(2-fluorophenyl)-1-hydroxy-2-oxo-3-pyrrolidinecarboxamide] the pest or weed control at 1000 g/ha [1, 12] was 60%, the pest or weed control at 1000 g/ha [1, 13] was 40% and the pest or weed control at 1000 g/ha [2, 12] was 50%. It also gave a pest or weed control at 1000 g/ha [2, 13] of 90%, a pest or weed control at 1000 g/ha [3, 12] of 30% and a pest or weed control at 1000 g/ha [3, 13] of 70%. For the same compound, the pest or weed control at 1000 g/ha [4, 12] was 0%, the pest or weed control at 1000 g/ha [4, 13] was 0% and the pest or weed control at 1000 g/ha [5, 12] was 0%. For the same compound, the pest or weed control at 1000 g/ha [5, 13] was 0%, the pest or weed control at 1000 g/ha [6, 12] was 0% and the pest or weed control at 1000 g/ha [6, 13] was 0%. It also gave a plant injury at 1000 g/ha [7, 12] of 0%, a plant injury at 1000 g/ha [7, 13] of 0% and a Corn plant response rating (crop injury, 0 = no effect, 100 = complete kill) at 1000 g/ha [8, 12] of 0%. It also gave a Corn plant response rating (crop injury, 0 = no effect, 100 = complete kill) at 1000 g/ha [8, 13] of 0%.
In the case of `Cn1ccc(C2CNC(=O)C2C(=O)Nc2ccccc2C(F)(F)F)n1` (racemic) [Compound 191], the “Plant response rating, Barnyardgrass” value [1, 9] is reported as 0, the “Plant response rating, Barnyardgrass” value [1, 10] is reported as 0 and the “Plant response rating, Crabgrass, Large” value [2, 9] is reported as 0. The “Plant response rating, Crabgrass, Large” value [2, 11] was 0, the “Plant response rating, Foxtail, Giant” value [3, 9] was 0 and the “Plant response rating, Foxtail, Giant” value [3, 11] was 0. The “Plant response rating, Morningglory” value [4, 9] was 0, the “Plant response rating, Morningglory” value [4, 11] was 0 and the “Plant response rating, Pigweed” value [5, 9] was 0. The “Plant response rating, Pigweed” value [5, 11] was 0, the “Plant response rating, Velvetleaf” value [6, 9] was 0 and the “Plant response rating, Velvetleaf” value [6, 11] was 0. For the same compound, the “Plant response rating, Wheat” value [7, 9] was 0, the “Plant response rating, Wheat” value [7, 11] was 0 and the “Plant response rating, Corn” value [8, 9] was 0. The “Plant response rating, Corn” value [8, 11] was 0.
In the case of `O=C1NCC(c2ccccc2)C1(Br)C(=O)Nc1ccc(Br)cc1F` (centres unmarked) [Compound 94], the “Plant response rating, Barnyardgrass” value [1, 14] is reported as 0, the “Plant response rating, Barnyardgrass” value [1, 15] is reported as 0 and the “Barnyardgrass plant response rating” value [1, 16] is reported as 0. For the same compound, the “Plant response rating, Barnyardgrass” value [1, 17] was 0, the “Plant response rating, Crabgrass, Large” value [2, 14] was 0 and the “Plant response rating, Crabgrass, Large” value [2, 15] was 0. For the same compound, the “Crabgrass, Large plant response rating” value [2, 16] was 0, the “Plant response rating, Crabgrass, Large” value [2, 18] was 50 and the “Plant response rating, Foxtail, Giant” value [3, 14] was 0. For the same compound, the “Plant response rating, Foxtail, Giant” value [3, 15] was 0, the “Foxtail, Giant plant response rating” value [3, 16] was 0 and the “Plant response rating, Foxtail, Giant” value [3, 18] was 0. For the same compound, the “Plant response rating, Morningglory” value [4, 14] was 0, the “Plant response rating, Morningglory” value [4, 15] was 0 and the “Morningglory plant response rating” value [4, 16] was 0. The “Plant response rating, Morningglory” value [4, 18] was 0, the “Plant response rating, Pigweed” value [5, 14] was 0 and the “Plant response rating, Pigweed” value [5, 15] was 0. For the same compound, the “Pigweed plant response rating” value [5, 16] was 0, the “Plant response rating, Velvetleaf” value [6, 14] was 0 and the “Plant response rating, Velvetleaf” value [6, 15] was 0. The “Velvetleaf plant response rating” value [6, 16] was 0, the “Plant response rating, Wheat” value [7, 14] was 0 and the “Plant response rating, Wheat” value [7, 15] was 0. The “Wheat plant response rating” value [7, 16] was 0, the “Plant response rating, Wheat” value [7, 18] was 0 and the “Plant response rating, Corn” value [8, 14] was 0. For the same compound, the “Plant response rating, Corn” value [8, 15] was 0, the “Corn plant response rating” value [8, 16] was 0 and the “Plant response rating, Corn” value [8, 18] was 0.
With `Cn1cc(C2CNC(=O)C2C(=O)Nc2ccccc2F)cn1` (racemic) [Compound 254] the “Plant response rating, Barnyardgrass” value [1, 9] was 0, the “Plant response rating, Barnyardgrass” value [1, 10] was 0 and the “Plant response rating, Crabgrass, Large” value [2, 9] was 0. The “Plant response rating, Crabgrass, Large” value [2, 11] was 70, the “Plant response rating, Foxtail, Giant” value [3, 9] was 0 and the “Plant response rating, Foxtail, Giant” value [3, 11] was 40. For the same compound, the “Plant response rating, Morningglory” value [4, 9] was 0, the “Plant response rating, Morningglory” value [4, 11] was 0 and the “Plant response rating, Pigweed” value [5, 9] was 0. For the same compound, the “Plant response rating, Pigweed” value [5, 11] was 0, the “Plant response rating, Velvetleaf” value [6, 9] was 0 and the “Plant response rating, Velvetleaf” value [6, 11] was 0. The “Plant response rating, Wheat” value [7, 9] was 0, the “Plant response rating, Wheat” value [7, 11] was 0 and the “Plant response rating, Corn” value [8, 9] was 0. The “Plant response rating, Corn” value [8, 11] was 0.
With `N#Cc1ccccc1NC(=O)C1C(=O)NCC1c1ccccc1` (racemic) [Compound 86] the “Plant response rating, Barnyardgrass” value [1, 14] was 0, the “Plant response rating, Barnyardgrass” value [1, 15] was 20 and the “Barnyardgrass plant response rating” value [1, 16] was 0. The “Plant response rating, Barnyardgrass” value [1, 17] was 40, the “Plant response rating, Crabgrass, Large” value [2, 14] was 0 and the “Plant response rating, Crabgrass, Large” value [2, 15] was 60. For the same compound, the “Crabgrass, Large plant response rating” value [2, 16] was 60, the “Plant response rating, Crabgrass, Large” value [2, 18] was 80 and the “Plant response rating, Foxtail, Giant” value [3, 14] was 0. For the same compound, the “Plant response rating, Foxtail, Giant” value [3, 15] was 10, the “Foxtail, Giant plant response rating” value [3, 16] was 20 and the “Plant response rating, Foxtail, Giant” value [3, 18] was 60. For the same compound, the “Plant response rating, Morningglory” value [4, 14] was 0, the “Plant response rating, Morningglory” value [4, 15] was 0 and the “Morningglory plant response rating” value [4, 16] was 0. The “Plant response rating, Morningglory” value [4, 18] was 0, the “Plant response rating, Pigweed” value [5, 14] was 0 and the “Plant response rating, Pigweed” value [5, 15] was 0. The “Pigweed plant response rating” value [5, 16] was 0, the “Plant response rating, Pigweed” value [5, 18] was 0 and the “Plant response rating, Velvetleaf” value [6, 14] was 0. For the same compound, the “Plant response rating, Velvetleaf” value [6, 15] was 0, the “Velvetleaf plant response rating” value [6, 16] was 0 and the “Plant response rating, Velvetleaf” value [6, 18] was 0. For the same compound, the “Plant response rating, Wheat” value [7, 14] was 0, the “Plant response rating, Wheat” value [7, 15] was 0 and the “Wheat plant response rating” value [7, 16] was 0. For the same compound, the “Plant response rating, Wheat” value [7, 18] was 0, the “Plant response rating, Corn” value [8, 14] was 0 and the “Plant response rating, Corn” value [8, 15] was 0. The “Corn plant response rating” value [8, 16] was 0 and the “Plant response rating, Corn” value [8, 18] was 20.
For `O=C1NCC(c2ccc(F)c(F)c2)C1C(=O)N(O)c1ccccc1` (centres unmarked) [Compound 71], the “Plant response rating, Barnyardgrass” value [1, 9] was 50, the “Plant response rating, Barnyardgrass” value [1, 19] was 50 and the “Plant response rating, Crabgrass, Large” value [2, 9] was 80. For the same compound, the “Plant response rating, Crabgrass, Large” value [2, 19] was 80, the “Plant response rating, Foxtail, Giant” value [3, 9] was 60 and the “Plant response rating, Foxtail, Giant” value [3, 19] was 60. The “Plant response rating, Pigweed” value [5, 9] was 0, the “Plant response rating, Pigweed” value [5, 19] was 0 and the “Plant response rating, Velvetleaf” value [6, 9] was 0. The “Plant response rating, Velvetleaf” value [6, 19] was 0, the “Plant response rating, Wheat” value [7, 9] was 0 and the “Plant response rating, Wheat” value [7, 19] was 0. The “Plant response rating, Corn” value [8, 9] was 0 and the “Plant response rating, Corn” value [8, 19] was 0.
